Assay results as given in article PMC12274739, “Differential substrate degradation by super-degron: EGFP in wild-type mouse cells, PD-1 requires CRBN humanization” (iScience, 2025).
Values joined by “and” are separate entries in the source; they are usually repeats but may differ in a detail not shown here. Equal entries are not always repeated. Where two headings read alike, the source gives them in different places.

Assays:
[1] = test system: EGFP-SD; type: cell-based, mouse; conditions: for ratio of bottom, mouse vs human cell line: EGFP-SD; for bottom vs top, EGFP-SD: IBR up to 1 μM
[2] = test system: SD-tagged EGFP; experiment: Degradation of SD-tagged EGFP in Crbn−/− (CRBN-KO) mESCs; type: cell-based, mouse; conditions: IBR up to 1 μM, 24 h
[3] = set-up: method as in PMID 32969202; conditions: humans, cited from earlier work
[4] = test system: EGFP-SD; experiment: Degradation of stably expressed EGFP-SD in human cell lines (hESCs, HEK293, Jurkat); type: cell-based; conditions: for bottom vs top, EGFP-SD: IBR up to 1 μM
[5] = set-up: method as in PMID 31125896; conditions: BALB/c mice, oral; cited from earlier work
[6] = molecular target: EGFP-ZFP91 (UniProt P42212+Q8C7D2, F64L/H231L/INS1V/S65T); type: cell-based, mouse; conditions: read-out: DC50, EGFP-ZFP91, stable
EGFP-ZFP91, sequence (Q8C7D2 whole entry, looked up, stated change not applied, other chains not shown): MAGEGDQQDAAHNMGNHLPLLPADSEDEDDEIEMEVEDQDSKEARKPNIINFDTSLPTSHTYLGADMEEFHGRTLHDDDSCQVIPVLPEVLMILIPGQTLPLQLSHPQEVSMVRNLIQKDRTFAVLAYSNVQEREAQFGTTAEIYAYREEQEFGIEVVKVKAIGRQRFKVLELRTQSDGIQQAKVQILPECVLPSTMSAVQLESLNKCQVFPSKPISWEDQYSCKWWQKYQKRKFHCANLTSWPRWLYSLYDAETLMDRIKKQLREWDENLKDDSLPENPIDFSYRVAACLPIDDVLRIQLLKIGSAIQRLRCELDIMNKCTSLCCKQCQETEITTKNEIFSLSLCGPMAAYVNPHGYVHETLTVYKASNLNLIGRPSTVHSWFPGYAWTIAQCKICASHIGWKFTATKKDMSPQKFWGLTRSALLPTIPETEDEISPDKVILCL

[7] = test system: EGFP-SD; experiment: Degradation of stably expressed EGFP-SD in rat ESCs
[8] = test system: EGFP-SD (C-terminal SD); type: cell-based, mouse; conditions: Crbn+/I391V mESCs (h/mCRBN), transient, 24 h
[9] = molecular target: EGFP-SD (C-terminal SD) (Aequorea victoria, UniProt P42212, F64L/H231L/S65T); type: cell-based, mouse; conditions: transient, 24 h; for DC50: read-out: DC50, EGFP-SD
[10] = molecular target: SD-EGFP (Aequorea victoria, UniProt P42212, F64L/H231L/S65T); conditions: rat ESCs, stable
[11] = molecular target: SD-EGFP (N-terminal SD) (Aequorea victoria, UniProt P42212, F64L/H231L/S65T); type: cell-based, mouse; conditions: transient, 24 h; for DC50: read-out: DC50, SD-EGFP
[12] = test system: SD-EGFP (N-terminal SD); type: cell-based, mouse; conditions: Crbn+/I391V mESCs (h/mCRBN), transient, 24 h
[13] = test system: wild-type mESCs; experiment: Proteome assay in wild-type mESCs with IBR; type: cell-based, mouse
Source text: Only SD was able to efficiently degrade EGFP even in the wild-type mouse cell lines. IKZF1/3 and several neo-substrates for CRBN were degraded in human cells but not in mouse cells, most likely because of the different amino acids in CRBN. However, the combination of SD and IBR or MZG degraded target proteins in both mouse and human cells. […] These 17 proteins are suspected to be novel substrates (data not shown). […] Moreover, general thalidomide analogs and CRBN have no neo-substrates in mouse cell lines.[25]

[14] = molecular target: SD-EGFP (Mus musculus, UniProt P42212+Q8C7D2, F64L/H231L/INS1V/S65T, form not given); type: cell-based
[15] = test system: PD-1-SD; experiment: Exogenous PD-1-SD degradation in mESCs; type: cell-based, mouse
Method: The dotted lines show an isotype control without IBR. […] The dotted lines show an isotype control without IBR. […] The black lines show isotype control without IBR. […] Red lines show the boundary between positive and negative. […] (B–J) IBR or solvent (−) was added to cultured splenocytes (B–G) or mESCs (H–J). […] The concentration is 0.1 μM in the rightmost bar in each group, and the left neighbor is a step dilution of one-tenth. Intensities of anti-PD-1-FITC on CD4^+ and CD8^+ T cells were measured by flow cytometry, and the geometric means of fluorescence intensities (MFI) were calculated. The MFI of the isotype control of anti-PD-1-FITC was subtracted from each MFI of anti-PD-1-FITC. The dots indicate the results of the experiment for each of the three samples from different individuals.
To determine whether the same phenomenon occurs in non-T cells, exogenous PD-1 degradation was examined in mESCs transfected with PD-1-SD expression vectors (Figures 6H–6J and S6E). […] We hypothesized that the degradation efficiency of membrane-localized proteins might be reduced in mouse-type CRBNs. Therefore, we expressed EGFP-SDs with membrane-localized peptides attached to their N-termini in mESCs and added IBR. The degradation efficiency of EGFP-SD with membrane-localization peptide[32] […] Therefore, Pdcd1^SD/SD/Crbn^I391V/I391V mice were used for further analyses.

[16] = test system: mouse PD-1-mCherry-Sall4 tag; type: cell-based, human; conditions: Jurkat, 24 h
[17] = cited from earlier work

For `O=C1CC[C@H](N2Cc3c(OCc4ccc(CN5CCOCC5)cc4)cccc3C2=O)C(=O)N1` [IBR, iberdomide], the “ratio of bottom, mouse vs human cell line” value ([1]; EL4 vs Jurkat) was 1.804, the “ratio of bottom, mouse vs human cell line” value ([1]; NIH3T3 vs HEK293) was 3.605 and the “Bottom, EGFP-SD” value ([1]; EL4, stable) was 0.04356. For the same molecule, the DC50 ([1]; EL4, stable) was 0.0755 nM, the “bottom vs top, EGFP-SD” value ([1]; EL4, stable) was 0.057 and the “Bottom, EGFP-SD” value ([1]; NIH3T3, stable) was 0.03706. For the same molecule, the DC50 ([1]; NIH3T3, stable) was 0.079 nM, the “bottom vs top, EGFP-SD” value ([1]; NIH3T3, stable) was 0.049 and the “Bottom, EGFP-SD” value ([1]; mouse ESCs, stable) was 0.02573. The DC50 ([1]; mouse ESCs, stable) was 0.221 nM, the “bottom vs top, EGFP-SD” value ([1]; mouse ESCs, stable) was 0.085 and the “level to which EGFP-SD was suppressed” value ([1]; mouse wild-type cell lines, IBR approximately 10^−2 μM to 10^−3 μM) was 10%. For the same molecule, the “degradation of SD-tagged EGFP” value [2] was “did not occur”, the “IBR present after 24 h, of the maximum concentration” value ([3]; multiple doses) was “about 20%” and the “time of serum concentration peak” value ([3]; oral, single and multiple once-daily doses) was 3 h. The “serum concentration with multiple doses compared to a single dose” value [3] was “doubles”, the “Bottom, EGFP-SD” value ([4]; HEK293, stable) was 0.01028 and the DC50 ([4]; HEK293, stable) was 5.45 pM. The “bottom vs top, EGFP-SD” value ([4]; HEK293, stable) was 0.009, the “Bottom, EGFP-SD” value ([4]; Jurkat, stable) was 0.02414 and the DC50 ([4]; Jurkat, stable) was 11.8 pM. For the same molecule, the “bottom vs top, EGFP-SD” value ([4]; Jurkat, stable) was 0.024, the “Bottom, EGFP-SD” value ([4]; human ESCs, stable) was 0.007522 and the DC50 ([4]; human ESCs, stable) was 2.78 pM. For the same molecule, the “bottom vs top, EGFP-SD” value ([4]; human ESCs, stable) was 0.005, the “half-life (T1/2)” value [5] was 54 min and the “time of serum concentration peak” value [5] was 0.14 h. The DC50 ([6]; B6J-S1 mESCs, Figure 5B) was 20.9 nM, the DC50 ([6]; CrbnI391V/I391V mESCs, Figure 5E) was 0.834 nM and the DC50 ([7]; read-out: DC50, EGFP-SD, stable) was 0.14 nM. For the same molecule, the “Bottom, EGFP-SD” value ([7]; stable) was 0.0497, the “bottom vs top, EGFP-SD” value ([7]; stable, IBR up to 1 μM) was 0.083 and the “Bottom, EGFP-SD (EGFP/mCherry MFI)” value [8] was 0.01502. The DC50 [8] was 0.0707 nM, the “bottom vs top, EGFP-SD” value [8] was 0.04 and the “Bottom, EGFP-SD (EGFP/mCherry MFI)” value ([9]; B6J-S1 mESCs) was 0.03557. For the same molecule, the “bottom vs top, EGFP-SD” value ([9]; B6J-S1 mESCs) was 0.10, the “Bottom, EGFP-SD (EGFP/mCherry MFI)” value ([9]; Crbn+/+ mESCs (mCRBN)) was 0.04584 and the “bottom vs top, EGFP-SD” value ([9]; Crbn+/+ mESCs (mCRBN)) was 0.15. The “Bottom, EGFP-SD (EGFP/mCherry MFI)” value ([9]; CrbnI391V/I391V mESCs (hCRBN)) was 0.007275, the “bottom vs top, EGFP-SD” value ([9]; CrbnI391V/I391V mESCs (hCRBN)) was 0.03 and the DC50 ([9]; B6J-S1 mESCs) was 0.815 nM. The DC50 ([9]; Crbn+/+ mESCs (mCRBN)) was 2.17 nM, the DC50 ([9]; CrbnI391V/I391V mESCs (hCRBN)) was 0.0654 nM and the “Bottom, SD-EGFP” value [10] was 0.01454. For the same molecule, the “bottom vs top, SD-EGFP” value ([10]; IBR up to 1 μM) was 0.057, the DC50 ([10]; read-out: DC50, SD-EGFP) was 0.271 nM and the “Bottom, SD-EGFP (EGFP/mCherry MFI)” value ([11]; B6J-S1 mESCs) was 0.09529. The “bottom vs top, SD-EGFP” value ([11]; B6J-S1 mESCs) was 0.24, the “Bottom, SD-EGFP (EGFP/mCherry MFI)” value ([11]; Crbn+/+ mESCs (mCRBN)) was 0.113 and the “bottom vs top, SD-EGFP” value ([11]; Crbn+/+ mESCs (mCRBN)) was 0.25. For the same molecule, the “Bottom, SD-EGFP (EGFP/mCherry MFI)” value ([11]; CrbnI391V/I391V mESCs (hCRBN)) was 0.04953, the “bottom vs top, SD-EGFP” value ([11]; CrbnI391V/I391V mESCs (hCRBN)) was 0.13 and the DC50 ([11]; B6J-S1 mESCs) was 1.82 nM. For the same molecule, the DC50 ([11]; Crbn+/+ mESCs (mCRBN)) was 6.06 nM, the DC50 ([11]; CrbnI391V/I391V mESCs (hCRBN)) was 0.0637 nM and the “Bottom, SD-EGFP (EGFP/mCherry MFI)” value [12] was 0.07126. For the same molecule, the DC50 [12] was 0.0784 nM, the “bottom vs top, SD-EGFP” value [12] was 0.18 and the “downregulation of 11 EGFP-bound candidate proteins” value ([13]; exogenously expressed in mESCs) was “none of them were downregulated by IBR”. The “number of proteins with reduced expression” value ([13]; wild-type mESCs, proteome assay, data not shown) was 17, the “bottom vs top, SD-EGFP” value [14] was 0.186 and 0.153 and 0.146 and 0.15 and 0.19 and the “level to which SD-EGFP was suppressed” value [14] was 20%. For the same molecule, the PD-1 degradation ([15]; Crbn+/+ mESCs transfected with PD-1-SD) was “barely degraded” and the PD-1 degradation ([15]; CrbnI391V/I391V mESCs transfected with PD-1-SD) was “degraded”.
In the case of `Nc1cccc2c1C(=O)N(C1CCC(=O)NC1=O)C2=O` (centres unmarked) [POM, pomalidomide], the “Bottom, PD-1 (FITC)” value ([16]; SALL4 tag, surface PD-1, no reagent = 1) is listed as 0.9333, the “effect on protein levels” value ([16]; Sall4 tag) is listed as “did not reduce protein levels” and the “blood-brain barrier (BBB) passage” value [17] is listed as “passes through the BBB”.
